According to the supplement of paper PMC10307832:

Assays:
Assay in all cases: relative viability (nuclei count vs DMSO), 5 days (fraction); higher = more cells survive
[1] = compound: CC(C)=CC[C@@H](O)C1=CC(=O)c2c(O)ccc(O)c2C1=O [Shikonin] + COc1cccc2cc(-c3nc([C@H]4CC[C@H](C(=O)O)CC4)n4ncnc(N)c34)[nH]c12 [OSI-027] (partner 0.5 µM)
Summary of the method: (§1)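 Dosing by pin tool came one day after lung cancer cell lines were seeded in 1536-well plates, using either one drug or a fixed anchor-drug dose plus five library-drug doses (not always all listed) in √10 steps. After 5 days, nuclei were counted on 4× images. Relative viability is treated-well nuclei count divided by vehicle-well nuclei count, and values are medians of duplicate plates.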

[2] = compound: CC(C)=CC[C@@H](O)C1=CC(=O)c2c(O)ccc(O)c2C1=O [Shikonin] + CS(=O)(=O)N1CCN(Cc2cc3nc(-c4cccc5[nH]ncc45)nc(N4CCOCC4)c3s2)CC1 [Pictilisib] (partner 1 µM)
Summary of the method: as §1

[3] = compound: CC(C)N(CCCNC(=O)Nc1ccc(C(C)(C)C)cc1)C[C@H]1O[C@@H](n2ccc3c(N)ncnc32)[C@H](O)[C@@H]1O + CS(=O)(=O)CCNCc1ccc(-c2ccc3ncnc(Nc4ccc(OCc5cccc(F)c5)c(Cl)c4)c3c2)o1 [Lapatinib] (partner 2 µM)
Summary of the method: as §1

[4] = compound: CC(C)N(CCCNC(=O)Nc1ccc(C(C)(C)C)cc1)C[C@H]1O[C@@H](n2ccc3c(N)ncnc32)[C@H](O)[C@@H]1O + Cc1nc(Nc2ncc(C(=O)Nc3c(C)cccc3Cl)s2)cc(N2CCN(CCO)CC2)n1 [Dasatinib] (partner 0.075 µM)
Summary of the method: as §1

Row | Cell Line | relative viability ([1]; first compound 0.01 µM) | relative viability ([1]; first compound 0.1 µM) | relative viability ([1]; first compound 0.3162 µM) | relative viability ([1]; first compound 1 µM) | relative viability ([2]; first compound 0.01 µM) | relative viability ([2]; first compound 0.1 µM) | relative viability ([2]; first compound 0.3162 µM) | relative viability ([2]; first compound 1 µM) | relative viability ([3]; first compound 0.08 µM) | relative viability ([3]; first compound 0.253 µM) | relative viability ([3]; first compound 0.8 µM) | relative viability ([3]; first compound 2.53 µM) | relative viability ([3]; first compound 8 µM) | relative viability ([4]; first compound 0.08 µM) | relative viability ([4]; first compound 0.253 µM) | relative viability ([4]; first compound 0.8 µM) | relative viability ([4]; first compound 2.53 µM) | relative viability ([4]; first compound 8 µM)
1 | NCI-H1975 | 0.728 | 0.763 | 0.7 | 0.68 | 0.287 | 0.283 | 0.268 | 0.294 | 0.752 | 0.805 | 0.473 | 0.752 | 0.656 | 0.382 | 0.337 | 0.241 | 0.341 | 0.288
2 | NCI-H1651 | 0.744 | 0.469 | 0.708 | 0.686 | 0.612 | 0.562 | 0.669 | 0.64 | 0.724 | 0.727 | 0.586 | 0.779 | 0.93 | 0.317 | 0.373 | 0.291 | 0.386 | 0.517
3 | NCI-H460 | 0.834 | 0.755 | 1.11 | 0.879 | 0.357 | 0.441 | 0.357 | 0.375 | 0.835 | 0.983 | 0.829 | 0.971 | 0.855 | 0.41 | 0.531 | 0.453 | 0.504 | 0.456
4 | LCLC-97TM1 | 0.504 | 0.591 | 0.675 | 0.579 | 0.172 | 0.143 | 0.266 | 0.169 | 0.906 | – | 1.41 | 0.517 | 1.11 | 0.897 | 0.783 | 0.933 | 0.822 | 0.82
5 | PC-14 | 0.921 | 0.556 | 1.06 | 0.9 | 0.817 | – | 0.641 | 0.68 | 0.287 | 0.284 | 0.355 | 0.332 | 0.316 | 0.223 | 0.292 | 0.233 | 0.247 | 0.275
6 | NCI-H1355 | 0.457 | 0.405 | 0.37 | 0.483 | 0.407 | 0.498 | 0.408 | 0.445 | 0.94 | 0.975 | – | 1 | 0.857 | 0.71 | 0.548 | 0.379 | 0.698 | 0.668
7 | HOP-62 | 0.967 | 1.06 | 1.03 | 0.826 | 0.714 | 1.09 | 0.933 | 0.62 | 1.02 | 0.797 | 0.858 | 0.958 | 0.764 | 0.629 | 0.615 | 0.54 | 0.577 | 0.604
8 | NCI-H2087 | 0.602 | 0.616 | 0.66 | 0.502 | 0.767 | 1.05 | 0.843 | 0.861 | 1.03 | 1.16 | 0.825 | 1.01 | 0.996 | 0.876 | 1.03 | 0.77 | 1.04 | 0.948
